Reference: US8729089B2 (Gilead Sciences, Inc., priority 2006, dated 2014)

Experiments:
[1] = tested on: HCV replicon in human hepatoma Huh-7 cell line; test: Anti-HCV replicon assay (EC50, luciferase); assay type: cell-based; settings: Hepatitis C virus, Huh-7, 72 h
Outline: (§1)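 Huh-7 cells carrying an HCV replicon (6000/well) exposed to 3-fold serial compound dilutions for 3 days at 37 °C, final DMSO 0.5% where used. EC50 read as replicon luciferase luminescence after cell lysis; CC50 from CellTiter-Glo luminescence after 10 min at room temperature.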

[2] = CC50 assay (CellTiter-Glo) in Huh-7 HCV replicon cells; assay type: cell-based, human; settings: human, 3 days incubation, CellTiter-Glo readout
Outline: as §1

| SMILES | EC50 [1] [nM] | CC50 at 3 days [2] [µM] |
| --- | --- | --- |
| Fc1ccc(-c2ccc3nc(NCc4ccccn4)nc(NCC(F)(F)F)c3n2)cc1 [Example 243, 6-(4-Fluoro-phenyl)-N2-pyridin-2-ylmethyl-N4-(2,2,2-trifluoro-ethyl)-pyrido[3,2-d]pyrimidine-2,4-diamine] | < 100 | 5 to 25 |
| Fc1ccc(-c2ccc3nc(NCc4cccnc4)nc(NCC(F)(F)F)c3n2)cc1 [Example 244, 6-(4-Fluoro-phenyl)-N2-pyridin-3-ylmethyl-N4-(2,2,2-trifluoro-ethyl)-pyrido[3,2-d]pyrimidine-2,4-diamine] | < 100 | 5 to 25 |
| Fc1ccc(-c2ccc3nc(NCc4ccc(-c5csnn5)cc4)nc(NCC(F)(F)F)c3n2)cc1 [Example 245, 6-(4-Fluoro-phenyl)-N2-(4-[1,2,3]thiadiazol-4-yl-benzyl)-N4-(2,2,2-trifluoro-ethyl)-pyrido[3,2-d]pyrimidine-2,4-diamine] | < 100 | > 25 |
| NS(=O)(=O)c1ccc(CNc2nc(NCC(F)(F)F)c3nc(-c4ccc(F)cc4)ccc3n2)c(F)c1 [Example 246, 3-Fluoro-4-{[6-(4-fluoro-phenyl)-4-(2,2,2-trifluoro-ethylamino)-pyrido[3,2-d]pyrimidin-2-ylamino]-methyl}-benzenesulfonamide] | < 100 | 5 to 25 |
| Fc1ccc(-c2ccc3nc(NCc4nnco4)nc(NCC(F)(F)F)c3n2)cc1 [Example 247, 6-(4-Fluoro-phenyl)-N2-[1,3,4]oxadiazol-2-ylmethyl-N4-(2,2,2-trifluoro-ethyl)-pyrido[3,2-d]pyrimidine-2,4-diamine] | < 100 | 5 to 25 |
| Fc1ccc(-c2ccc3nc(NCc4cncs4)nc(NCC(F)(F)F)c3n2)cc1 [Example 248, 6-(4-Fluoro-phenyl)-N2-thiazol-5-ylmethyl-N4-(2,2,2-trifluoro-ethyl)-pyrido[3,2-d]pyrimidine-2,4-diamine] | < 100 | 5 to 25 |
| CC(Nc1nc(NCC(F)(F)F)c2nc(-c3ccc(F)cc3)ccc2n1)c1ccc(S(N)(=O)=O)cc1 (stereo not shown) [Example 249, 4-{1-[6-(4-Fluoro-phenyl)-4-(2,2,2-trifluoro-ethylamino)-pyrido[3,2-d]pyrimidin-2-ylamino]-ethyl}-benzenesulfonamide] | < 100 | < 5 |
| Fc1ccc(-c2ccc3nc(NCc4ccc(-n5cncn5)cc4)nc(NCC(F)(F)F)c3n2)cc1 [Example 251, 6-(4-Fluoro-phenyl)-N2-(4-[1,2,4]triazol-1-yl-benzyl)-N4-(2,2,2-trifluoro-ethyl)-pyrido[3,2-d]pyrimidine-2,4-diamine] | < 100 | > 25 |
| COCCNc1nc(NCC(F)(F)F)c2nc(-c3ccc(F)cc3)ccc2n1 [Example 252, 6-(4-Fluoro-phenyl)-N2-(2-methoxy-ethyl)-N4-(2,2,2-trifluoro-ethyl)-pyrido[3,2-d]pyrimidine-2,4-diamine] | < 100 | 5 to 25 |
| Fc1ccc(-c2ccc3nc(NCc4ncco4)nc(NCC(F)(F)F)c3n2)cc1 [Example 253, 6-(4-Fluoro-phenyl)-N2-oxazol-2-ylmethyl-N4-(2,2,2-trifluoro-ethyl)-pyrido[3,2-d]pyrimidine-2,4-diamine] | < 100 | < 5 |
| Fc1ccc(-c2ccc3nc(NCCn4cncn4)nc(NCC(F)(F)F)c3n2)cc1 [Example 254, 6-(4-Fluoro-phenyl)-N2-(2-[1,2,4]triazol-1-yl-ethyl)-N4-(2,2,2-trifluoro-ethyl)-pyrido[3,2-d]pyrimidine-2,4-diamine] | < 100 | > 25 |
| CC(Nc1nc(NCC(F)(F)F)c2nc(-c3ccc(F)cc3)ccc2n1)c1ccc(-n2cncn2)cc1 (stereo not shown) [Example 255, 6-(4-Fluoro-phenyl)-N2-[1-(4-[1,2,4]triazol-1-yl-phenyl)-ethyl]-N4-(2,2,2-trifluoro-ethyl)-pyrido[3,2-d]pyrimidine-2,4-diamine] | < 100 | 5 to 25 |
| CCOP(=O)(CCNc1nc(NCC(F)(F)F)c2nc(-c3ccc(F)cc3)ccc2n1)OCC [Example 256, {2-[6-(4-Fluoro-phenyl)-4-(2,2,2-trifluoro-ethylamino)-pyrido[3,2-d]pyrimidin-2-ylamino]-ethyl}-phosphonic acid diethyl ester] | < 100 | 5 to 25 |
| Fc1ccc(-c2ccc3nc(NCCN4CCOCC4)nc(NCC(F)(F)F)c3n2)cc1 [Example 258, 6-(4-Fluoro-phenyl)-N2-(2-morpholin-4-yl-ethyl)-N4-(2,2,2-trifluoro-ethyl)-pyrido[3,2-d]pyrimidine-2,4-diamine] | < 100 | < 5 |
| NS(=O)(=O)CCNc1nc(NCC(F)(F)F)c2nc(-c3ccc(F)cc3)ccc2n1 [Example 259, 2-[6-(4-Fluoro-phenyl)-4-(2,2,2-trifluoro-ethylamino)-pyrido[3,2-d]pyrimidin-2-ylamino]-ethanesulfonic acid amide] | < 100 | 5 to 25 |
| NC(=O)CCNc1nc(NCC(F)(F)F)c2nc(-c3ccc(F)cc3)ccc2n1 [Example 260, 3-[6-(4-Fluoro-phenyl)-4-(2,2,2-trifluoro-ethylamino)-pyrido[3,2-d]pyrimidin-2-ylamino]-propionamide] | < 100 | 5 to 25 |
| NC(=O)c1ccc(CNc2nc(NCC(F)(F)F)c3nc(-c4ccc(F)cc4)ccc3n2)cc1 [Example 261, 4-{[6-(4-Fluoro-phenyl)-4-(2,2,2-trifluoro-ethylamino)-pyrido[3,2-d]pyrimidin-2-ylamino]-methyl}-benzamide] | < 100 | < 5 |
| CCOc1nc(NCc2ccc(C(=O)N(C)C)cc2)nc2ccc(-c3ccc(F)cc3)nc12 [Example 262, 4-{[4-Ethoxy-6-(4-fluoro-phenyl)-pyrido[3,2-d]pyrimidin-2-ylamino]-methyl}-N,N-dimethyl-benzamide] | < 100 | > 25 |
| CCOc1nc(NCc2cccnc2)nc2ccc(-c3ccc(F)cc3)nc12 [Example 263, [4-Ethoxy-6-(4-fluoro-phenyl)-pyrido[3,2-d]pyrimidin-2-yl]-pyridin-3-ylmethyl-amine] | < 100 | > 25 |
| CCOc1nc(NCCOC)nc2ccc(-c3ccc(F)cc3)nc12 [Example 264, [4-Ethoxy-6-(4-fluoro-phenyl)-pyrido[3,2-d]pyrimidin-2-yl]-(2-methoxy-ethyl)-amine] | < 100 | > 25 |
| CCOc1nc(NCCS(N)(=O)=O)nc2ccc(-c3ccc(F)cc3)nc12 [Example 265, 2-[4-Ethoxy-6-(4-fluoro-phenyl)-pyrido[3,2-d]pyrimidin-2-ylamino]-ethanesulfonic acid amide] | < 100 | 5 to 25 |
| CCOc1nc(NCc2ncco2)nc2ccc(-c3ccc(F)cc3)nc12 [Example 266, [4-Ethoxy-6-(4-fluoro-phenyl)-pyrido[3,2-d]pyrimidin-2-yl]-oxazol-2-ylmethyl-amine] | < 100 | > 25 |
| CCOc1nc(NCc2ccc(-n3cncn3)cc2)nc2ccc(-c3ccc(F)cc3)nc12 [Example 267, [4-Ethoxy-6-(4-fluoro-phenyl)-pyrido[3,2-d]pyrimidin-2-yl]-(4-[1,2,4]triazol-1-yl-benzyl)-amine] | < 100 | > 25 |
